According to patent US20240309360A1, “TRANS-ACTIVATORS AND METHODS AND USE THEREOF” (THE GOVERNING COUNCIL OF THE UNIVERSITY OF TORONTO, priority 2021, published 2024):

Test system: EGFP reporter (7×TetO array, basal CMV promoter) in HEK293T reporter cell line
Test: TAD-seq pooled activation screen of 60-aa fragments fused to PYL1
Type: cell-based, human
Settings: for Hit high GFP: high GFP population (top 1%); for logFC high GFP / logFC medium GFP: log 2 fold change of counts, 100 μM ABA 48 hours; for logFC high GFP: sorted high GFP cells (top 1%) vs unsorted cells; for logFC medium GFP: sorted medium GFP cells (top 2-5%) vs unsorted cells; for Hit medium GFP: medium GFP population (top 2-5%); call rule not given here
Source text: A fragment library of 75 activators identified in our screen was generated, using 60 amino-acid tiles every 20 aa such that every amino acid was represented by three different fragments (FIG. 3A). The pooled fragment library was fused to PYL1 and recruited to the same GFP reporter used in the original ORFeome screen (FIG. 3A). […] The GFP positive population was sorted into two independent replicates, and fragments in each population were quantified by sequencing. However, in contrast to the ORFeome screen, both high GFP cells (top 1%) and medium GFP cells (top 2-5%) were sorted to potentially identify transactivators of different strength.
Activation domain tiling library generation. A tiling library was generated from 75 proteins identified as activators in the ORFeome screen. Oligonucleotides containing a 5′ adapter […] (SEQ ID NO: 23) and a 3′ adapter […] (SEQ ID NO: 24) to generate a 5′ adapter ([…]) (SEQ ID NO: 11) and a 3′ adapter ([…]) (SEQ ID NO: 12) were synthesized as pooled libraries (Twist Biosciences). 6×50 μl PCR reactions were set up using NEBNext Ultra II Q5 master mix (New England Biolabs) with 5 nM oligos as template. PCR conditions were optimized to find the lowest cycle with a clean visible product at the expected 300 bp length. The thermocycling condition was an initial 30 s at 98° C., then 2 cycles of 98° C. for 10 s, 63° C. for 20 s, and 72° C. for 15 s, followed by 10 more cycles of 98° C. for 10 s and 72° C. for 30 s with a final extension at 72° C. for 5 min. Primers were designed to have Gateway compatible flanking sequences. The resulting libraries were gel extracted by QIAgen gel extraction kit after loading on a 2% TAE gel for 2 hrs at 60V and subsequently cloned into pDONR221 using 20 separate BP reactions in total of 5 μl reactions. The entry plasmid pool was transformed after an overnight reaction into DHSalpha competent E. coli and incubated overnight on LB agar plates containing kanamycin ([…]). Colonies were collected and plasmid DNA purified. 20 LR reactions were then set up as described in the previous section. Each reaction was transformed into NEB 10-beta chemically competent E. coli and grown on LB agar plates containing carbenicillin ([…]) overnight at 30° C. Colonies were counted to ensure >200-fold coverage at each step of cloning, pooled and maxiprepped.
Pooled activation screens. ORFeome and transactivation tiling libraries tagged at the C-terminus with PYL1 were packaged into lentiviral particles. A clonal EGFP reporter cell line stably co-expressing ABI-dCas9 and a gRNA targeting the promoter were transduced at low multiplicity of infection (MOI) with approximately 30% cell survival after puromycin (1 μg/mL) selection. Untransduced cells under the same condition were fully eliminated. Sufficient cells were transduced to maintain >500 fold coverage of the libraries. Recruitment was induced by treating cells with 100 μM abscisic acid (ABA, Sigma) for 48 hours. In parallel, a control batch of cells were treated with equal total volume of DMSO. Cells were then washed in PBS, treated with dissociation buffer (1 mM EDTA, 10 mM KCl, 150 mM NaCl, 5 mM sodium bicarbonate, 0.1% glucose) and resuspended in flow buffer (5 mM EDTA, 25 mM HEPES pH 7, 1% BSA, PBS). High GFP population for each library, top 1% for ORFeome and two bins of top 1% and the next 4% for the TAD screen, were sorted and their genomic DNA directly extracted using QIAmp DNA Blood Mini Kit (QIAGEN).
TAD sequencing. Performed nested PCR on the purified genomic DNA using primers targeting T7 promoter and PYL1 of the backbone vector in the first step creating a ˜470 bp product. Products of the first reaction were then pooled and amplified for an additional 10 steps using primers targeting outside the Gateway sites creating a ˜300 bp product. Libraries were quantified on Qubit dsDNA Broad Range kit and paired-end sequenced on an Illumina MIseq with a custom PAGE-purified R1 sequencing primer. […]

Substance | Hit high GFP | logFC high GFP | logFC medium GFP | Hit medium GFP
ATF6-1: 60-aa TAD-seq fragment of ATF6 (MGEPAGVAGTMESPFSPGLFHRLDEDWDSALFAELGYFTDTDELQLEAANETYENNFDNL; listed as Homo sapiens) | hit | 3.145 | 1.563 | hit
ATF6B-1: 60-aa TAD-seq fragment of ATF6B (MAELMLLSEIADPTRFFTDNLLSPEDWGLQNSTLYSGLDEVAEEQTQLFRCPEQDVPFDG; listed as Homo sapiens) | hit | 1.917 | 0.9931 | hit
ATMIN-24: 60-aa TAD-seq fragment of ATMIN (NPGPDTQLPSGPAQNPGIDFDIEEFFSASNIQTQTEESELSTMTTEPVLESLDIETQTDF; listed as Homo sapiens) | – | 1.233 | 0.988 | hit
ATMIN-32: 60-aa TAD-seq fragment of ATMIN (ETQTMSSGFETLGSLFFTSNETQTAMDDFLLADLAWNTMESQFSSVETQTSAEPHTVSNF; listed as Homo sapiens) | – | 0.6355 | 0.8198 | hit
ATOH1-1: 60-aa TAD-seq fragment of ATOH1 (MSRLLHAEEWAEVKELGDHHRQPQPHHLPQPPPPPQPPATLQAREHPVYPPELSLLDSTD; listed as Homo sapiens) | – | 0.7218 | 0.9194 | hit
ATXN7L3-2: 60-aa TAD-seq fragment of ATXN7L3 (QEIYADLVEDSCLGFCFEVHRAVKCGYFFLDDTDPDSMKDFEIVDQPGLDIFGQVFNQWK; listed as Homo sapiens) | – | 0.7654 | 0.8911 | hit
ATXN7L3-4: 60-aa TAD-seq fragment of ATXN7L3 (FEIVDQPGLDIFGQVFNQWKSKECVCPNCSRSIAASRFAPHLEKCLGMGRNSSRIANRRI; listed as Homo sapiens) | – | 0.7641 | 0.7514 | hit
BRD8-23: 60-aa TAD-seq fragment of BRD8 (KEECFRSGVAEAPVGSKAPSIDGKEELDLAEKMDIAVSYTGEELDFETVGDIIAIIEDKV; listed as Homo sapiens) | – | 0.5884 | 0.5915 | hit
BRD8-24: 60-aa TAD-seq fragment of BRD8 (IDGKEELDLAEKMDIAVSYTGEELDFETVGDIIAIIEDKVDDHPEVLDVAAVEAALSFCE; listed as Homo sapiens) | hit | 1.593 | 1.566 | hit
BTBD18-24: 60-aa TAD-seq fragment of BTBD18 (IDCREPYAFDTALLEQPCEAEEYRITSAAATSELEEILDFMLCGSDIEPPIGSLESPGAE; listed as Homo sapiens) | – | 1.246 | 0.8561 | hit
BTBD18-25: 60-aa TAD-seq fragment of BTBD18 (EEYRITSAAATSELEEILDFMLCGSDIEPPIGSLESPGAEGCRTPTYHLTETGKNWIEGE; listed as Homo sapiens) | – | 1.471 | 1.413 | hit
C3orf62-11: 60-aa TAD-seq fragment of C3orf62 (NHMCGHCQDSPFKEEAWALLMDKSPQKATDADPGSLKQAFDDHNIVETVLDLEEDYNVMT; listed as Homo sapiens) [Fragment C3orf62-11] | hit | 6.023 | −0.5261 | –
C11orf74-1: 60-aa TAD-seq fragment of C11orf74 (MSAHMSGLEIMDEDQLIKDVLDKFLNCHEQTYDEEFLNTFTHLSQDLLLLPGEVEQDVST; listed as Homo sapiens) [Fragment C11orf74-1] | hit | 2.356 | 1.551 | hit
CITED1-7: 60-aa TAD-seq fragment of CITED1 (LQNWDFGAQAGGAESLSPSAGAQSPAIIDSDPVDEEVLMSLVVELGLDRANELPELWLGQ; listed as Homo sapiens) | hit | 4.314 | 1.597 | hit
CITED2-11: 60-aa TAD-seq fragment of CITED2 (MPASVAHVPAAMLPPNVIDTDFIDEEVLMSLVIEMGLDRIKELPELWLGQNEFDFMTDFV; listed as Homo sapiens) | hit | 6.165 | 0.9491 | –
CSRNP1-28: 60-aa TAD-seq fragment of CSRNP1 (DNIEAPHFPLPGLSPPGDASSCFLESLMGFSEPAAEALDPFIDSQFEDTVPASLMEPVPV; listed as Homo sapiens) | – | 0.5029 | 0.6955 | hit
DDIT3-1: 60-aa TAD-seq fragment of DDIT3 (MAAESLPFSFGTLSSWELEAWYEDLQEVLSSDENGGTYVSPPGNEEEESKIFTTLDPASL; listed as Homo sapiens) | hit | 2.373 | 1.502 | hit
DDIT3-2: 60-aa TAD-seq fragment of DDIT3 (WYEDLQEVLSSDENGGTYVSPPGNEEEESKIFTTLDPASLAWLTEEEPEPAEVTSTSQSP; listed as Homo sapiens) | – | 1.138 | 1.28 | hit
ELF4-1: 60-aa TAD-seq fragment of ELF4 (MAITLQPSDLIFEFASNGMDDDIHQLEDPSVFPAVIVEQVPYPDLLHLYSGLELDDVHNG; listed as Homo sapiens) | – | 0.6626 | 0.7287 | hit
ELF4-2: 60-aa TAD-seq fragment of ELF4 (DDIHQLEDPSVFPAVIVEQVPYPDLLHLYSGLELDDVHNGIITDGTLCMTQDQILEGSFL; listed as Homo sapiens) | hit | 1.467 | 1.364 | hit
FAM22F-19: 60-aa TAD-seq fragment of FAM22F (PRPQRPAETNAHLPPPRPQRPAETKVPEEIPPEVVQEYVDIMEELLGSHPGDTGEPEGQR; listed as Homo sapiens) | – | 0.9998 | 0.9884 | hit
FAM22F-20: 60-aa TAD-seq fragment of FAM22F (PAETKVPEEIPPEVVQEYVDIMEELLGSHPGDTGEPEGQREKGKVEQPQEEDGITSDPGL; listed as Homo sapiens) | hit | 3.214 | 2.101 | hit
FAM22F-22: 60-aa TAD-seq fragment of FAM22F (EKGKVEQPQEEDGITSDPGLLSYIDKLCSQEDFVTKVEAVIHPRFLEELLSPDPQMDFLA; listed as Homo sapiens) | hit | 4.76 | 2.325 | hit
FAM22F-23: 60-aa TAD-seq fragment of FAM22F (LSYIDKLCSQEDFVTKVEAVIHPRFLEELLSPDPQMDFLALSQELEQEEGLTLAQLVEKR; listed as Homo sapiens) | hit | 5.822 | 0.2737 | –
